{"source": "patent US6465007B1", "about": "“Transgene expression in polarized cells” (Genzyme Corporation, priority 1998, dated 2002)", "key": {"[1]": {"system": "mouse trachea", "experiment": "Aerosolized Ad2βgal-4 after intranasal pre-treatment, X-gal staining", "type": "in vivo", "procedure": "Viral aerosols were generated using a MiniHEART low flow jet nebulizer (Vortran, Sacramento, Calif.). The nebulizer was operated at 50 psi with compressed medical grade air at the maximum flow rate (˜2.21 pm). Animals were exposed to the aerosol in a whole-body exposure chamber. Ten ml of an Ad2βgal-4 solution (5×10^10 IU) was aerosolized over approximately one hour. Some mice were pre-treated with 50 μl of dH2O or EGTA solution by intranasal instillation 0, 15, 30, or 60 min before aerosolization, while others received no treatment prior to exposure to aerosol. X-gal staining was performed 3 days post aerosolization.\nCytochemical localization of Ogal expression in the trachea was observed using 5-bromo-4-chloro-3-indolyl-β-D-galactopyranoside (X-gal; Sigma). In brief, cannulated mouse lungs were fixed for 10 min by infusion of a fixing solution (2% paraformaldehyde and 0.2% glutaraldehyde in PBS). The lungs were then rinsed twice with 50 mM glycine in PBS, filled with X-gal solution, and stained overnight. Staining was stopped by transfering the samples into the fixing solution."}, "[2]": {"system": "epithelial tight junctions of mouse trachea", "experiment": "Lanthanum precipitation in trachea under TEM", "type": "in vivo", "settings": "treated animals vs control animals", "procedure": "Openings in tight junctions were visualized using a method described previously (Shaklai and Tavassoli, 1977; and Schneeberger and McCormack, 1984) with modifications. Briefly, mouse trachea was fixed with 2.5% glutaraldehyde, 1% lanthanum nitrate in 0.1 M cacodylate buffer, pH 7.4, for 4 to 6 h at […]. The trachea was then rinsed and washed 16 h with three changes of ice-cold 6.8% sucrose in 0.1 M cacodylate buffer ˜pH 7.4). The samples were postfixed in 1% OsO4 in 0.1 M cacodylate buffer containing 1% lanthanum nitrate pH 7.4 at 4° C. for 1 h, and dehydrated and then embedded in epoxy resin."}, "[3]": {"system": "AdV", "experiment": "Effect on AdV titer assessed on 293 cells", "settings": "concentrations up to 0.4 M", "experimental": "To rule out the possibility that EGTA might enhance the activity of AdV, the effects of EGTA on AdV titer were assessed on 293 cells."}}}
{"compound": "O=C(O)CN(CCOCCOCCN(CC(=O)O)CC(=O)O)CC(=O)O", "note": "[EGTA, Ethylene glycol bis(B-aminoethyl ether) N,N,N′,N′-tetraacetic acid]", "values": [{"measurement": "X-gal stained cells in trachea after AdV aerosol", "setting": "[1]; 50 μl of 0.1 M intranasal 30 min prior to aerosol", "result": "significant number of positively stained cells"}, {"measurement": "X-gal stained cells in trachea after AdV aerosol", "setting": "[1]; pretreated 1 h prior to aerosol", "result": "no significant increase"}, {"measurement": "penetration of lanthanum precipitates through epithelial tight junctions", "setting": "[2]", "result": "penetrated through the epithelial tight junctions"}, {"measurement": "effect on virus activity", "setting": "[3]", "result": "no measurable effect"}]}
